{"source": "patent US20250025440A1", "about": "“COMPOSITIONS AND METHODS FOR MANAGEMENT OF HUMAN PAPILLOMA VIRUS-ASSOCIATED CANCERS” (LOMA LINDA UNIVERSITY, priority 2021, published 2025)", "type_in_all_cases": "cell-based", "key": {"[1]": {"system": "HPV- (SCC19, SCC29) and HPV+ (SCC47, SCC104, SCC152) HNSCC cell lines", "assay": "Sensitization of HNSCC cell lines to photon radiation", "settings": "radiation 0-4Gy followed by inhibitor; DER10", "protocol": "The dose enhancement ratio for 10% survival (DER10) was calculated as follows: DER10=(Dose correlated with 10% survival fraction in radiation-treated cells)/(Dose correlated with 10% survival fraction in radiation and inhibitor treated cells).\nCCDP, Cetuximab, and GA-OH were evaluated for their ability to sensitize HNSCC cell lines to photon radiation.\nColonies were counted after 14-21 days and normalized to vehicle control and survival analysis was performed.\nSensitization of an additional HPV^+ cell line to radiation by CDDP, Cetuximab and GA-OH was evaluated."}, "[2]": {"system": "SCC104 (HPV+ HNSCC cell line)", "assay": "MTT cell viability of gambogic acid analogs", "settings": "SCC104, 24 hr", "method": "Next, the analogs were evaluated for functional activity using the HPV^+ HNSCC cell line, SCC104, in the MTT assay as described previously to determine whether similar findings would be observed as in the in vitro AlphaScreen™ analysis. With one exception, the patterns were similar to the AlphaScreen™ data, but the differences were relatively more pronounced in the cell-based screen (FIG. 6B). […] Based on these findings, 30-hydroxygambogic acid (GA-OH) was selected as a candidate for more extensive functional studies.\nUsing the SciFinder and Zinc15 databases, several gambogic acid structural analogs were identified and selected. The 8 analogs were obtained as follow: gambogenic amide (Enzo Life Sciences), gambogenic acid (Selleckchem), morellic acid (Aobious), 30-hydroxy gambogic acid (Quality Phytochemicals, LLC), acetyl gambogic acid (Microsource), and gambogin, neogambogic acid and isomorellinol (MolPort Natural Products). Additional gambogic acid was purchased from Tocris. The interactions of the analogues with E6-caspase 8 was tested using AlphaScreen™ technology using the same protocol as with the primary screen, and were compared to the parent compound. The effect on cell viability was also similarly done in HPV^+ and HPV^− cell lines via the MTT assay (see below) and potency was determined using GraphPad IC50 curve fitting.\nAll working concentrations were diluted in PBS to the desired concentration before use. To test the effect of gambogic acid and/or its derivatives on cell viability, all cell lines were seeded at 2×10^4 per well in 96-well plates and allowed to adhere overnight. Various concentrations of the analogues were added and the cells incubated at 37° C. for 24 hr. Viability was then measured using the MTT assay, performed as described previously. All experiments were repeated at least three times (three biological replicates, carried out on different days). Data presented are from a representative experiment. Cell viability and potency were assessed from % inhibition relative to the vehicle control, and IC50 dose curves were generated using GraphPad Prism."}, "SCC47 (HPV+)": {"system": "SCC47 (HPV+)", "assay": "Cell cycle analysis after irradiation (PI flow cytometry)", "settings": "SCC47, radiation (4Gy) followed by GA-OH, 24 hours", "method": "Cells were treated with radiation (4Gy) followed by GA-OH before cell cycle analysis was performed using propidium iodide (PI) flow cytometry assay after 24 hours. FIGS. 15A-15B are graphical representations of the cell cycle analysis of SCC47 and SCC19 cell lines after irradiation and followed by treatment with control or with GA-OH, as measured by flow cytometry assays after 24 hours. In both cell lines, G2-M is the most affected stage of cell cycle and there is increase in G2-M arrested cells. The HPV^+ cell line—SCC47 has a higher proportion of cells that are still arrested in G2-M phase after 24 hours compared to the HPV^− cell line—SCC19. FIGS. 16A-16B are graphical representations of the fraction of G2-M arrested cells in SCC47 and SCC19 lines after irradiation and followed by treatment with control or with GA-OH, as measured by flow cytometry assays after 24 hours. […]\nKinetics of G2-M arrest when SCC47 and SCC19 are irradiated with or without GA-OH. […] FIGS. 17A-17B are graphical representations of the kinetics of G2-M arrest when SCC47 and SCC19 are irradiated and followed by treatment with control or with GA-OH, as measured by flow cytometry assays after 24 hours. […] Apoptosis analysis of SCC47 and SCC19 was performed after irradiation and followed by treatment with control or with GA-OH, as measured by flow cytometry assays after 24 hours. […]"}, "SCC19 (HPV-) cells": {"system": "SCC19 (HPV-) cells", "assay": "Western blotting of p53 and apoptosis mediators", "settings": "HPV- cell line, 0.5 μM and 1 μM, 24 hours", "method": "(§1) Based on the cell viability studies described above, as well as AlphaScreen™ data showing that that GA-OH prevents E6 from binding to both caspase 8 and the p53-recruiter, E6AP, activation of p53 and associated apoptotic effects could be contributing to the decrease in cell viability. Levels of p53 and its target gene product, p21, were evaluated using immunoblotting. […] FIG. 8A is a photographic image of blots analyzing Caspase 8 expression and activation of downstream targets. SCC19, SCC90 and SCC104 were seeded and treated with vehicle, 0.5 μM and 1 μM Of GA-OH for 24 hours. Activation of p53 was tested by blotting for p53 expression and activation. Caspase 8 activation and apoptosis was tested by blotting for Caspase 8 expression and activation of downstream targets. These observations were corroborated by an induction of the levels of the target of p53, p21. […] The basal levels of p53 in the HPV^+ cell lines are lower compared to the HPV^− cell line.\n(§2) The effect of GA-OH treatment on activation of another target of E6, caspase 8, and its downstream targets in the apoptosis cascade was evaluated. […] There is a noticeable increase in caspase 8 levels in the HPV^− cell line upon exposure to GA-OH. […] Quantification of relative expression of each of the targets above using B-actin as a loading control. FIGS. 9A-9E are graphical representations of the relative expression of cleaved PARP, p53, p21, cleaved caspase 3, and cleaved caspase 8, respectively in SCC19, SCC90 and SCC104 cell lines when treated with vehicle, or 0.5 μM, or 1 μM of GA-OH, each of the targets above using B-actin as a loading control is shown.\n(§3) Adherent cells were washed with ice cold PBS. Cell lysis buffer containing protease inhibitor cocktail was added and cells were scraped off into a tube on ice. The cells were incubated on ice for 10 minutes. Cell lysates were separated by SDS-PAGE and electrophoretically transferred to PVDF membranes. Following blocking, antibodies directed against caspase 8, p53, cleaved PARP, cleaved caspase 3, p21, and β-actin (Cell signaling) were applied at 1:5000 dilution. Anti-mouse and anti-rabbit secondary antibodies were then employed (LI-COR Biosciences, Lincoln, NE, USA). Signals were measured using the Odyssey Infrared Imaging system (LI-COR Biosciences) and quantified using Image J."}, "[3]": {"system": "SCC90 and SCC104 (HPV+) cells", "assay": "Western blotting of p53 and apoptosis mediators", "settings": "0.5 μM and 1 μM, 24 hours", "method": "as §1, §2, §3"}}, "note": "Entries after “also recorded” stand apart in the source; their conditions may differ."}
{"substance": "30-hydroxygambogic acid [GA-OH]", "values": [{"measurement": "sensitization to photon radiation", "setting": "[1]", "value": "most sensitization in HPV+ cell lines; also recorded: less than that of CDDP but greater than cetuximab"}, {"measurement": "potency in MTT assay", "setting": "[2]", "value": "highest potency of all analogs"}, {"measurement": "G2-M arrest", "setting": "SCC47 (HPV+)", "value": "increased arrest at 24 hours as compared to radiation alone"}, {"measurement": "caspase 8 cleavage", "setting": "SCC19 (HPV-) cells", "value": "no visible cleavage of caspase 8"}, {"measurement": "PARP cleavage", "setting": "[3]", "value": "cleavage is modest"}, {"measurement": "caspase 3 cleavage", "setting": "[3]", "value": "cleaved dose-dependently"}, {"measurement": "caspase 8 cleavage", "setting": "[3]", "value": "cleavage of caspase 8 in a dose-dependent manner"}, {"measurement": "p53 level", "setting": "[3]", "value": "increase of p53"}, {"measurement": "p21 level", "setting": "[3]; vs vehicle", "value": "robust induction of p21 levels"}]}
